Source: ChEMBL document CHEMBL1201862, “PubChem BioAssay data set” (2004)
Activity calls are given as the source filed them.

Columns and labels:
[1] = toxicity toward HepG2 liver cells – cell-based, plate reader, cherry-pick, antagonist series, cytotoxicity control, dose response (AID 743416); format: functional
[2] = blockers of bursicon-stimulated LGR2 cAMP reporter – cell-based, HEK293, CRE-luciferase reporter, cherry pick, set 2, dose response (AID 743343); format: functional;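 note: transfected cells were stimulated with diluted bursicon conditioned medium after compound addition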
[3] = blockade of melanocortin 4 receptor signaling – cell-based, plate reader, cherry pick, counter-screen for LGR2 antagonist project, dose response (AID 743444); format: functional;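 note: transfected HEK 293 cells stimulated with alpha-MSH peptide; potency of inhibitors of the alpha-MSH evoked signal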
[4] = viability loss in HeLa cells – cytotoxicity control for MgcRacGAP inhibitor project, dose response (AID 624300); format: functional
[5] = molecular target: T1, Rac GTPase-activating protein 1 (Homo sapiens, UniProt Q9H0H5); experiment: blockers of MgcRacGAP-driven Rac1 GTP hydrolysis – biochemical, ADP Hunter fluorescence, primary and confirmatory, confirmation (AID 624330); format: functional
T1 sequence (Q9H0H5 whole entry): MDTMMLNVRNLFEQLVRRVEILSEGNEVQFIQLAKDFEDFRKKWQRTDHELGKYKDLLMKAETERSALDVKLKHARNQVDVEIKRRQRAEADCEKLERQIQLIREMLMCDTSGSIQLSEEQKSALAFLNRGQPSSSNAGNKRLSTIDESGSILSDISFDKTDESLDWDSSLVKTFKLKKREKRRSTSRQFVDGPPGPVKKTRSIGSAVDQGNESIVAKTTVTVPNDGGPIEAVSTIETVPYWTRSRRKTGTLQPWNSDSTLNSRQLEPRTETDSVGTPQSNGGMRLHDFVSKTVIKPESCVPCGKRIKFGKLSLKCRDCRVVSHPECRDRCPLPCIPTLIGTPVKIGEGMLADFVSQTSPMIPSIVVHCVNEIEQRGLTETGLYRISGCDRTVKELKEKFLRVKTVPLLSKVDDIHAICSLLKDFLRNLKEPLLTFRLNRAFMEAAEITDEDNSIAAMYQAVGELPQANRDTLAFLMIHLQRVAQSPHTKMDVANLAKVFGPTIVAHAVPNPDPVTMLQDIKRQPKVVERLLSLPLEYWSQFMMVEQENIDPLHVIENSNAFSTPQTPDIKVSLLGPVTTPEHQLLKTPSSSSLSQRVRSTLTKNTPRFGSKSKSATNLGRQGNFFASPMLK

[6] = molecular target: E3 ubiquitin-protein ligase Mdm2 (Homo sapiens, UniProt Q00987); experiment: MDM2-luc reporter signal enhancers, multi-concentration potency testing, MDM2 ubiquitin-protein ligase inhibitor program, whole-cell format, luminescence detection, 384-well microplate (AID 1394); format: functional;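 note: MDM2 E3 inhibitors raise luminescence so EC50 is for signal enhancement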
[7] = molecular target: Mitogen-activated protein kinase 10 (Homo sapiens, UniProt P53779); experiment: Dose response biochemical screening assay for inhibitors of c-Jun N-Terminal Kinase 3 (JNK3). [Related pubchem assays: 746 ]
[8] = reduced cellular PGC1a acetyl-lysine signal – cell-based, cherry-picked samples, dose response (AID 720514); format: functional;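 note: potency may reflect raised or lowered acetylation signal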
[9] = Trypanosoma cruzi growth suppression in host cells – NIH3T3 host cells, beta-gal luminescence, confirmation (AID 2044); format: functional, cell-based;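 note: intracellular parasites grown in NIH/3T3 mouse fibroblasts as host cells; luminescent beta-galactosidase reporter signal from transgenic T. cruzi replicating inside host cells; inhibitors lower the luminescence signal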
[10] = NIH3T3 cell viability loss – ATP luminescence, mouse fibroblasts, counter-screen, dose response (AID 2010); format: functional, cell-based;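 note: cells exposed to compound for about 90 hours before reading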
[11] = molecular target: T2, Protein RecA (Mycobacterium tuberculosis, UniProt P9WHJ3); experiment: Fluorescence Cell-Free Homogeneous Dose Retest to Identify Inhibitors of RecA-Intein Splicing Activity. [Related pubchem assays (depositor defined):AID2097, AID2223, AID489010, AID492950]; format: functional
T2 sequence (P9WHJ3 whole entry): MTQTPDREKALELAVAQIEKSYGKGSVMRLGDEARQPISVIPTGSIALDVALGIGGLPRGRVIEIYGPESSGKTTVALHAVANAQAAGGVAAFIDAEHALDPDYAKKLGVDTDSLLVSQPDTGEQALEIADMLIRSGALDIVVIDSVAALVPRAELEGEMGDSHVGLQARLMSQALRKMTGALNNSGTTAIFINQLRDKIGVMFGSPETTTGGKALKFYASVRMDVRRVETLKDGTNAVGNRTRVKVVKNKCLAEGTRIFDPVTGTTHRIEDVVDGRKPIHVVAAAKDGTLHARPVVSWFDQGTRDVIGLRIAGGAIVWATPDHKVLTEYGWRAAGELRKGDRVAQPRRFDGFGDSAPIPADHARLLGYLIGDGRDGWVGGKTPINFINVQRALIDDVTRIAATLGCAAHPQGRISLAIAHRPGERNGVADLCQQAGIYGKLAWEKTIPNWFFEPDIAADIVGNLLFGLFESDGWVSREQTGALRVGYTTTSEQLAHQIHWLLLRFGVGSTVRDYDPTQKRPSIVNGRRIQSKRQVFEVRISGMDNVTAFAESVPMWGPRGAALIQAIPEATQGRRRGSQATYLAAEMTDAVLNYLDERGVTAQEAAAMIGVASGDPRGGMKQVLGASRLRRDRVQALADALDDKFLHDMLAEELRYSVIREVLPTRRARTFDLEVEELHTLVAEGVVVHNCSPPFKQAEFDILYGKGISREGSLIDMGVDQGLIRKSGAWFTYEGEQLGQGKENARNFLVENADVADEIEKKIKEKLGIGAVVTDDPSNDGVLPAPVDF

[12] = Fluorescence-based cell-based high throughput dose response assay for inhibitors of the interaction of nucleotide-binding oligomerization domain containing 2 (NOD2) and the receptor-interacting serine-threonine kinase 2 (RIPK2).; format: functional; details: Homo sapiens
[13] = molecular target: T3, Heat shock factor protein 1 (Mus musculus, UniProt P38532); experiment: decrease of HSF1-responsive luciferase luminescence – cell-based, NIH3T3, dose retest, confirmation (AID 2382); format: functional;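 note: NIH3T3 fibroblasts with HSF1-driven luciferase reporter stressed by proteasome inhibitor MG132; luminescence from HSF1-driven luciferase expression after 8 hours of MG132 stress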
T3 sequence (P38532 whole entry): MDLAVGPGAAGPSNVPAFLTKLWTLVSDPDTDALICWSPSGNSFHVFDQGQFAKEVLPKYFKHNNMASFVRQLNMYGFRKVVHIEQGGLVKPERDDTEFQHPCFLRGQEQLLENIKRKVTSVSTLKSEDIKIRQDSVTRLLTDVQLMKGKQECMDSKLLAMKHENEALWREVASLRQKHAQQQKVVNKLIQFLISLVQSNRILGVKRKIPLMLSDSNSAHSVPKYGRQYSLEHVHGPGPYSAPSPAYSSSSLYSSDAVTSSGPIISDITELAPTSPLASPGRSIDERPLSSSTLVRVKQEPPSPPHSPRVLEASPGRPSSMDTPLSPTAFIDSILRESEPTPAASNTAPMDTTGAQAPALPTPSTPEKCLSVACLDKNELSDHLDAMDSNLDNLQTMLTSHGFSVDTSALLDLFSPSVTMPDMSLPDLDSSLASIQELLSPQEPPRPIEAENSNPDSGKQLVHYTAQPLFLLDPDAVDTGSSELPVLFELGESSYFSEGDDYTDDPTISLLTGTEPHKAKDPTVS

[14] = NIH-3T3 fibroblast cytotoxicity, dose response, cytotoxicity control, cell-based, fluorescence, Alamar Blue, secondary assay (AID 2327); format: functional;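 note: NIH-3T3 mouse fibroblasts cultured with fluconazole at 8 µg/mL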
[15] = molecular target: T4, Replicative DNA helicase DnaB (Mycobacterium tuberculosis, UniProt P9WMR3); experiment: DnaB intein splicing inhibitors, dose response, biochemical, cell-free fluorescence (AID 449749); format: functional
T4 sequence (P9WMR3 whole entry): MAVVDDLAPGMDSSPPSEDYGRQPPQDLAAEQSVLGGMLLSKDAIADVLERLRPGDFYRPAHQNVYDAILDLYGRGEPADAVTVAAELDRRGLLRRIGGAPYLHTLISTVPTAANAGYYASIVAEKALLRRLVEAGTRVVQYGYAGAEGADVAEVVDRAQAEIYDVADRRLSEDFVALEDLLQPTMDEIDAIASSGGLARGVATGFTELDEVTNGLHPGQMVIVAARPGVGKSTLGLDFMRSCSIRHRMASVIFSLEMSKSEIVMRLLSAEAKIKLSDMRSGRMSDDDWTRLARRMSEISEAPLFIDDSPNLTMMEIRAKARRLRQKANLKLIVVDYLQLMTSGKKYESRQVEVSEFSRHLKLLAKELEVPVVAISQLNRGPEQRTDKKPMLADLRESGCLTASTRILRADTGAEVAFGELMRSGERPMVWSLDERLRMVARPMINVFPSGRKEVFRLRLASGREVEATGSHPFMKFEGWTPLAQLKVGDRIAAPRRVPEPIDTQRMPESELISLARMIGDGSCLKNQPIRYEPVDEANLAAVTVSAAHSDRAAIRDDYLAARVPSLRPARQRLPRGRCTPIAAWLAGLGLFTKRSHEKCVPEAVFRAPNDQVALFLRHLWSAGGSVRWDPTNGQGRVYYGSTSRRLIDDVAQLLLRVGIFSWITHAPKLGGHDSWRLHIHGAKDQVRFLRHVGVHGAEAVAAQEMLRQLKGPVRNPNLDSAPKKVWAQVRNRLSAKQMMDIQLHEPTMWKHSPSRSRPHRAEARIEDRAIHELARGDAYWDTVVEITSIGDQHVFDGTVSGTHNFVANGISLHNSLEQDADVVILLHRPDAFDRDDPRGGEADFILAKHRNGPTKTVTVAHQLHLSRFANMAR

[16] = fluconazole-exposed Candida albicans growth modulators – fluorescence, retest, confirmation (AID 2467); format: functional, cell-based
[17] = molecular target: Paired box protein Pax-8 (Homo sapiens, UniProt Q06710); experiment: PAX8 transcriptional activity inhibition in RMG-I – RMG-I cells, luciferase, cherry-pick, dose response (AID 687027); format: functional, cell-based;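 note: luciferase reporter driven by Pax8 target thyroperoxidase promoter measured by SteadyGlo luminescence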
[18] = OVCAR8 cell viability loss – plate reader, dry powder samples, PAX8 project, dose response (AID 743197); format: functional, cell-based; details: OVCAR-8
[19] = A2780 cell killing – plate reader, dry powder samples, cytotoxicity control, dose response (AID 743046); format: functional, cell-based
[20] = OVCAR-3 cell viability loss – plate reader, dry powder samples, PAX8 inhibitor project, dose response (AID 743044); format: functional, cell-based
[21] = growth inhibition of yeast DHODH-expressing 3D7 parasites – SYBR Green, dry powder samples, dose response (AID 1159570); format: functional, cell-based;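 note: parasite growth measured after 72 hours of compound exposure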
[22] = growth inhibition of PfATP4-mutant resistant parasites – NITD609-resistant line, SYBR Green, dry powder, dose response (AID 1159571); format: functional, cell-based;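 note: parasites synchronized at ring stage by sorbitol before testing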
[23] = toxicity to human HepG2 hepatoma cells – cell-based, plate reader, dry powder samples, cytotoxicity control, dose response (AID 1159569); format: functional;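 note: inhibitor potency with signal falling toward the positive control level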
[24] = P. falciparum Dd2 growth inhibitors, dose response, SYBR Green, cherry-picked samples (AID 1159567); format: functional, cell-based
[25] = Dd2 malaria parasite growth inhibition potency – SYBR Green, dry powder samples, dose response (AID 1159566); format: functional, cell-based;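 note: potency for growth inhibition with lower SYBR green DNA signal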

Chain of Paired box protein Pax-8 (Q06710 whole entry): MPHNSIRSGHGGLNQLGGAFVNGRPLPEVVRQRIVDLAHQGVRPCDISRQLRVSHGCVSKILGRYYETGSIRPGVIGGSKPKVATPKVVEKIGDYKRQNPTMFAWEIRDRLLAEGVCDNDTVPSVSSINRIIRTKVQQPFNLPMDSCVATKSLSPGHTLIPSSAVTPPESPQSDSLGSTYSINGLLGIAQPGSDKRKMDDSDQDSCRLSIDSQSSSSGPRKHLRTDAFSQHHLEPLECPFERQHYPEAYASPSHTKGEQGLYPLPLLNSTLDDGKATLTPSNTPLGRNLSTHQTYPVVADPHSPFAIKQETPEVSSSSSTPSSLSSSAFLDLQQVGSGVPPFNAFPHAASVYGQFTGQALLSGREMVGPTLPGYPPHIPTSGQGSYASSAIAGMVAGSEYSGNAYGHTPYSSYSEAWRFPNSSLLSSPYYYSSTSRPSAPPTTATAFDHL
Chain of Mitogen-activated protein kinase 10 (P53779 whole entry): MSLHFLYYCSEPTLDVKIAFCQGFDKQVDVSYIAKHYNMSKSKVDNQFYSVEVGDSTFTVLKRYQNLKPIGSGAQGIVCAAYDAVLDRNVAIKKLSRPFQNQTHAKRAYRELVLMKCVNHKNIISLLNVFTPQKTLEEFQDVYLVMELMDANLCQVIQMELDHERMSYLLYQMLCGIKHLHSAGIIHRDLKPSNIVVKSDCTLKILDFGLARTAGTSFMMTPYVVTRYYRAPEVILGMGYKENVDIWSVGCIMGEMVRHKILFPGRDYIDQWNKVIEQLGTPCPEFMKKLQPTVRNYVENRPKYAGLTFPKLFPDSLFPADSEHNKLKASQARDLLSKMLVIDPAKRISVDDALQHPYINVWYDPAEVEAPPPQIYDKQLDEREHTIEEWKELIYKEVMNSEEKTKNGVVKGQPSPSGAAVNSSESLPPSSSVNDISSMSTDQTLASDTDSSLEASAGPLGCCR
Chain of E3 ubiquitin-protein ligase Mdm2 (Q00987 whole entry): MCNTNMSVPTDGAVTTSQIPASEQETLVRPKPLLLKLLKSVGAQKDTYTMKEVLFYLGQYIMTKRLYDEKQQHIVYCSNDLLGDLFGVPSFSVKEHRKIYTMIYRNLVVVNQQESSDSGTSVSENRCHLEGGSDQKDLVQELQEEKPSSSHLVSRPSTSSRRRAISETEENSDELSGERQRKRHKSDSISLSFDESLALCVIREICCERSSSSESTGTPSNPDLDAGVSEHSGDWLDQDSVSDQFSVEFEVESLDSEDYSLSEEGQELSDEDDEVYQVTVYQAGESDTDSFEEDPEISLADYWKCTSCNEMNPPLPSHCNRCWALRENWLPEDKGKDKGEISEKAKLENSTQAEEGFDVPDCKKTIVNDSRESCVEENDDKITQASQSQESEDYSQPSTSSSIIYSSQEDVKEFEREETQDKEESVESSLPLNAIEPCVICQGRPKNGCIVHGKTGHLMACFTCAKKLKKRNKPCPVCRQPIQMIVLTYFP

Cc1ccc(-c2csc(Nc3ccccn3)n2)cc1
AC50 [1]: > 52 µM (inactive)
AC50 [2]: 2.74 µM (active)
AC50 [3]: 3.3 µM (active)

CCCc1cc(S)n2c(nc3ccccc32)c1C#N
CC50 [4]: 100 µM (active)
IC50 [5]: 52.2 µM (active)

Cc1ccc(C(=O)NN2C(=O)/C(=C/c3cccn3C)SC2=S)cc1
EC50 [6]: 0.09 µM (not active)

CCOc1ccc(C2CC(=O)NC3=C2C(=O)CCC3)cc1 (configuration not stated)
IC50 [7]: > 93.1 µM (not active)

O=C(c1ccc(F)cc1)N(C(=O)c1ccc(F)cc1)c1ncccn1
AC50 [8]: 25.9 µM (active)

CC(C)=C1SC(N2CCN(c3cccc(C(F)(F)F)c3)CC2)=NC1=O
EC50 [6]: 18.7 µM (not active)

Cc1ccc(-n2ncc(Br)c(Br)c2=O)cc1
EC50 [9]: 2.23 µM (active)
EC50 [10]: 1.97 µM (active)
EC50 [11]: 4.75 µM (active)
IC50 [12]: 3.25 µM (active)
EC50 [13]: 5.57 µM (active)
EC50 [14]: 2.27 µM (inconclusive)
AC50 [15]: 20.9 µM (active)
EC50 [16]: 0.443 µM (active)

CC(=O)N1CCN(c2ccc(Nc3ncnc4c3oc3ccccc34)cc2)CC1
CC50 [4]: 58.3 µM (active)
IC50 [5]: 46 µM (active)

CCCN1Cc2cccc(C(=O)NCc3ccc4c(c3)OCO4)c2C1=O
IC50 [7]: 31.8 µM (not active)

COc1ccc(S(=O)(=O)Nc2ccc3c(c2)C(=O)N([C@@H](C)CO)C[C@H](C)[C@@H](CN(C)Cc2ccc(C(F)(F)F)cc2)OCCCC[C@@H](C)O3)cc1
AC50 [17]: 9.62 µM (active)
AC50 [18]: 23.6 µM (active)
AC50 [19]: 56.2 µM (active)
AC50 [20]: 23 µM (active)

C[C@H]1CCCCO[C@@H](CN(C)Cc2ccc(Cl)c(Cl)c2)[C@@H](C)CN([C@@H](C)CO)C(=O)c2cc(NC(=O)Nc3ccc(C(F)(F)F)cc3)ccc2O1
AC50 [17]: 4.77 µM (active)
AC50 [18]: > 70 µM (inactive)
AC50 [19]: 59.1 µM (active)
AC50 [20]: 22.2 µM (active)

C[C@@H]1CN([C@H](C)CO)C(=O)c2cc(NC(=O)CCCCCC(=O)Nc3ccccc3N)ccc2O[C@@H](C)CCCCO[C@H]1CN(C)Cc1ccc(Cl)c(Cl)c1
AC50 [17]: 12.2 µM (active)
AC50 [18]: 65.4 µM (active)

C[C@@H]1CCCCO[C@@H](CN(C)C(=O)c2ccccc2)[C@H](C)CN([C@H](C)CO)C(=O)c2cc(NC(=O)Nc3ccc(C(F)(F)F)cc3)ccc2O1
AC50 [17]: 3.53 µM (active)
AC50 [18]: > 70 µM (inactive)
AC50 [20]: 36.5 µM (active)

Cc1ccc(-c2ccc([C@H]3[C@@H](CO)N4CCCCN(C(=O)Nc5cccc(F)c5)C[C@H]34)cc2)cc1
AC50 [17]: 21.7 µM (active)
AC50 [19]: 39.1 µM (active)
AC50 [20]: 37.5 µM (active)

C/C(=N\CCCn1ccnc1)C1=C(O)c2ccccc2C1=O
IC50 [7]: 35.7 µM (not active)

COc1ccc2c3c(n(C)c2c1)[C@H](CO)N(C(=O)Nc1ccc(F)cc1)CC31CCN(Cc2cccnc2)CC1
AC50 [21]: 1.52 µM (active)
AC50 [22]: 2.03 µM (active)
AC50 [23]: > 100 µM (inactive)
AC50 [24]: 3.02 µM (active)
AC50 [25]: 1.61 µM (active)

CN(C)C(=O)c1ccc(-c2ccc([C@@H]3[C@@H]4CN(Cc5ccc6c(c5)OCO6)C[C@H]3N4)cc2)cc1
AC50 [21]: 4.61 µM (active)
AC50 [22]: 2.58 µM (active)
AC50 [23]: 22.6 µM (active)
AC50 [24]: 1.13 µM (active)
AC50 [25]: 2.25 µM (active)
